Two compounds from US7951843B2, “Amide linked modulators of γ-secretase” (Janssen Pharmaceutica N.V., priority 2007, dated 2011) can be followed below.

Structures are written as SMILES.

The assay addresses γ-secretase (Homo sapiens, UniProt P49768). Description: Screening for γ-secretase-modulating activity in SKNBE2 cells carrying APP 695 wild type. In kind it is cell-based. Conditions: SKNBE2 cells carrying the APP 695 wild type. The protocol:
Screening of the Compounds of the Invention for γ-Secretase-modulating Activity Screening was carried out using SKNBE2 cells carrying the APP 695—wild type, grown in DMEM/NUT-mix F12 (HAM) provided by Gibco (cat no. 31330-38) containing 5% Serum/Fe supplemented with 1% non-essential amino acids. Cells were grown to near confluency. The screening was performed using the assay as described in Citron et al (1997) Nature Medicine 3: 67.

By inhibition is commonly meant the relative decrease from the control value, in per cent. A lower inhibition goes with a weak effect. Take `CC(C)CC(C(=O)O)c1cc(NC(=O)c2cc(C(F)(F)F)cc(C(F)(F)F)c2)cc(-c2ccc(C(F)(F)F)cc2)c1` (centres unmarked) [Compound 3, 2-[5-(3,5-Bis-trifluoromethyl-benzoylamino)-4′-trifluoromethyl-biphenyl-3-yl]-4-methyl-pentanoic acid]: the inhibition at 1 µM was found to be 24%. The compound `CC(C)CC(C(=O)O)c1cc(NC(=O)c2cc(F)cc(F)c2)cc(-c2ccc(C(F)(F)F)cc2)c1` (centres unmarked) [Compound 4, 2-[5-(3,5-Difluoro-benzoylamino)-4′-trifluoromethyl-biphenyl-3-yl]-4-methyl-pentanoic acid] returned an inhibition at 1 µM of 34%.
